Source: EPA's ToxValDB 9.5 (doi:10.2903/j.efsa.2008.128r)

How the values were obtained:
Canidae = conditions: subchronic; duration: 90 days; oral; Dog Other; organ weight
Anas platyrhynchos = conditions: oral, mortality
Mus musculus = conditions: acute; oral; mortality
Apis mellifera = conditions: acute; duration: 48 hours; oral; unspecified; mortality
Daphnia magna = conditions: chronic/long-term; duration: 21 days
Colinus virginianus = conditions: for LD50: acute, oral, mortality
Typhlodromus pyri = assay: LR50; higher = less toxic; conditions: not reported; mortality

Compound: CC(C)N1C(=O)N(c2ccccc2)CSC1=NC(C)(C)C [Buprofezin]
- NOAEL (Canidae): 10 mg/kg-day
- LD50 (Anas platyrhynchos; acute, unspecified): > 2000 mg/kg-day
- LC50 (Anas platyrhynchos; short-term, feed): > 1310 mg/kg-day
- LC50 (Tagia sp.; acute, duration: 14 days, mortality): > 1000 mg/kg
- NOEC (Tagia sp.; chronic/long-term, duration: 56 days, reproduction): 500 mg/kg
- LD50 (Mus musculus): > 2000 mg/kg-day
- LD50 (Apis mellifera): > 164 µg/piece
- NOEC (Daphnia magna): 0.08 mg/L
- LD50 (Colinus virginianus; diet): > 1310 mg/kg-day
- LD50 (Colinus virginianus): > 2000 mg/kg-day
- NOEC (Colinus virginianus; developmental, development): 48 mg/kg-day
- NOEC (Colinus virginianus; reproduction developmental, reproduction): 198 mg/kg-day
- LD50 (Rattus norvegicus; acute, oral, mortality): > 2000 mg/kg-day
- NOAEL (Rattus norvegicus; chronic, duration: 2 years, oral, diet, M/F, organ weight): 0.9 mg/kg-day
- NOAEL (Rattus norvegicus; developmental, development): 50 mg/kg-day
- NOAEL (Rattus norvegicus; reproduction developmental, body weight): 66 mg/kg-day
- LC50 (Oncorhynchus mykiss; acute, duration: 96 hours, mortality): > 0.33 µg/mL
- NOEC (Oncorhynchus mykiss; chronic/long-term, growth): 0.052 mg/L
- LR50 (Typhlodromus pyri): > 3000 g/ha
